Like-named read-outs stand apart in the source and are kept apart here.
Experiments:
in vitro [1] = assay: in vitro
Text: U937 cells (CRL-1593^TM) were isolated from human histiocytic lymphoma; Vero cells (CCL-81^TM) were derived from the kidney of the African green monkey, Cercopithecus aethiops; HepG2 (HB-8065^TM) cells were derived from human liver tissue, and CAD-R1 cells, a subclone, were derived from mouse neuronal cells. All cell lines were from American Type Culture Collection (Manassas, VA, USA), except CAD-R1 cells that were kindly donated by D. Chikaraishi and J. Wang (Department of Neurobiology, Duke University Medical Center, Durham, NC, USA). All cell lines were cultured in standard conditions at 37 °C, 5% CO2. U-937 cells were cultivated in RPMI 1640 medium supplemented with 10% fetal bovine serum (FBS) and antibiotics (penicillin 100 U/mL and streptomycin 0.1 mg/mL). Vero, HepG2 and CAD-R1 were cultivated in DMEM medium supplemented with 5% FBS and antibiotics.
(§1) Cytotoxic activity of rotenone and it derivatives on U-937, Vero, HepG2, […] and huMDM cells was evaluated in vitro using the MTT (3-(4,5-dimethylthiazol-2-yl)-2,5-diphenyltetrazolium bromide assay) as described previously. Cells were adjusted to 1 × 10^5 U-937 cells/mL, 2.5 × 10^5 Vero, HepG2 or CAD-R1 cells/mL and 5 × 10^5 huMDM cells/mL in RPMI 1640 supplemented with 10% SBF and the corresponding concentration of each compound. Six serial-based four-dilution concentrations from 200 to 0.19 μg/mL were tested. The amount of formazan produced by the viable cells was registered as optical densities (OD) obtained in an ELISA reader (Bio-Rad) at 570 nm. […] Additionally, hemolytic activity on huRBCs was assessed by the osmotic lysis method. In brief, O positive (O+) huRBCs were adjusted at 3% hematocrit saline solution and incubated in the presence of each compound (six serial four-fold dilutions from 200 to 0.19 µg/mL) at 37 °C. After 2 h, hemoglobin concentration in the supernatant was measured according to the OD obtained in an ELISA reader plate (Bio-Rad) at 570 nm. Cells exposed to saline solution with Triton X-100 were used as positive (lyses) controls, while unexposed cells were used as negative (viability) controls. Each compound and each concentration were assessed in triplicate in at least two separate experiments.
(§2) The percentage of viability (%V) was calculated using Equation 1, where the optical density (OD) of unexposed cells (negative control) corresponds to 100% of viability. In turn, mortality percentage corresponds to 100%–% viability: % Viability = (OD Exposed cells)/(OD Control cells) × 100(1)

[2] = system: Plasmodium falciparum (chloroquine sensitive 3D7 strain); assay: microbe, parasite or virus in culture; type: cell-based; conditions: for Index of Selectivity huRBC: IS = LC50 in huRBC/EC50 in P. falciparum; for EC50: read-out: Biological activity CE50 Antiplasmodial
Protocol: The effect of compounds on the growth of the parasites was assessed by quantification of the parasite DNA stained with ethidium bromide (EtBr). Briefly, unsynchronized cultures of P. falciparum were adjusted to a 1.5%–2% parasitemia and 5% hematocrit in RPMI medium supplemented with 10% human serum. Then, 500 µL of parasites and 500 µL of each concentration of compound were placed in each well of 24-well plates. Plates were incubated for 72 h at 37 °C in a N2 (90%), CO2 (5%) and O2 (5%) atmosphere. […] After 72 h of exposure, DNA from parasites was extracted and purified using a lysis solution containing proteinase K. Each compound and each concentration were assessed in triplicate in at least two separate experiments.
Results are expressed as the median effective concentration (EC50) calculated by probit analysis using the % of inhibition: % parasite growth = (FAU Exposed parasites)/(FAU unexposed parasites) × 100(2)
(§3) The index of selectivity was calculated with the equation: IS = LC50/EC50.

[3] = system: intracellular amastigotes of Leishmania panamensis; assay: Leishmanicidal activity on intracellular amastigotes, flow cytometry (GFP); type: cell-based; conditions: for Index of Selectivity huMDM: IS = LC50 in huMDM/EC50 for L. panamensis; for EC50: Leishmania panamensis, read-out: Biological activity CE50 Leishmanicidal
Protocol: The leishmanicidal activity was tested on intracellular amastigotes of Leishmania panamensis by flow cytometry following the methodology previously described. Previously, huMDM were infected with promastigotes of L. panamensis transfected with the green fluorescent protein gene (MHOM/CO/87/UA140pIR-GFP) in a proportion of 35:1 (parasites:cells). Plates were incubated at 34 °C, 5% CO2, and after 3 h, cells were washed twice with phosphate buffer (PBS) and incubated again. After 24 h, the infected cells were exposed for 72 h to each concentration of the compounds. Cells were removed using trypsin/EDTA solution and washed twice with PBS by centrifuging 10 min at 1,100 rpm, 4 °C. Then, cells were analyzed in a flow cytometer (Cytomics FC 500MPL, Brea, CA, USA) by reading at 488-nm excitation, 525-nm emissions over an argon laser and counting 10,000 events. The percentage of infected cells was determined by dot plot analysis, while the parasitic load was calculated by the mean fluorescence intensity using histogram analysis. In parallel, cells incubated in medium alone were used as the controls of infection (negative control), and cells exposed to amphotericin B were used as controls of leishmanicidal activity (positive control). Each concentration was assessed in triplicate in at least two independent experiments.
Antileishmanial activity was determined according to the reduction of infected cells and their parasite load obtained for each experimental condition according to the fluorescence median intensity (FMI) emitted by the cytometer and using Equation 3, where the % of parasitemia in unexposed cells corresponds to 100% parasitemia. […] Results are expressed as the median effective concentration (EC50) calculated by probit analysis using the % of inhibition of infection: % parasitemia = (FMI Exposed cells)/(FMI unexposed cells) × 100(3)
as §3

in vitro [4] = conditions: human
Protocol: Primary cultures of human monocyte-derived macrophages (huMDMs) and human red blood cells (huRBCs) obtained from healthy donors after signing the informed consent were also used. The huMDM were obtained from peripheral mononuclear cells isolated by Ficoll-Hypaque 1077 gradient centrifugation. huMDMs were suspended at 3 × 10^5 cells/mL in RPMI 1640 medium supplemented with 10% autologous serum. One mL of suspension was dispensed into each well of 24-well chamber slides and incubated at 37 °C, 5% of CO2 for 72 h, according to a previously described methodology. On the other hand, huRBCs were obtained from sodium citrate anticoagulated whole blood. After centrifugation at 1,500 rpm for 10 min, the RBCs were recovered and suspended in RPMI 1640 medium at 50% hematocrit and stored at 4 °C until use.
as §1, §2

[5] = African green monkey (Cercopithecus aethiops)
[6] = Plasmodium falciparum, 3D7, 72 h, total forms of P. falciparum 3D7, unsynchronized culture, 72 h, ± SD, n = 6 replicates
[7] = total forms of P. falciparum 3D7, unsynchronized culture, 72 h, ± SD, n = 6 replicates
[8] = L. panamensis intracellular amastigotes in huMDM, 72 h exposure, ± SD, n = 6 replicates

**Q.** For `COc1cc2c(cc1OC)[C@@H]1C(=O)c3ccc4c(c3O[C@@H]1CO2)C[C@H](C1(C)CO1)O4` (stereo partly drawn) [Compound 2, 6aS,12aS-8,9-Dimethoxy-2-(2-methyloxiran-2-yl)-1,2,12,12a-tetrahydrochromeno[3,4-b]furo[2,3-h]-chromen-6(6aH)-one], which CC50 (in vitro [1]; [5]) is on record?
**A.** The CC50 was 81.3 ± 16.9 µM.

**Q.** What about the CC50 (in vitro [1]; mouse) of the same molecule?
**A.** The CC50 was 29 ± 3 µM.

**Q.** And the “Index of Selectivity huRBC” value [2]?
**A.** Its value is >12.1.

**Q.** And the EC50 [2, 6]?
**A.** The EC50 was < 50 µM.

**Q.** What about the EC50 [2, 7] of the same molecule?
**A.** Its EC50 is 41.7 ± 12.6 µM.

**Q.** And the “Index of Selectivity huMDM” value [3]?
**A.** Its value is <3.6.

**Q.** What about the EC50 [3, 8] of the same molecule?
**A.** Its EC50 is > 126 µM.

**Q.** And the CC50 (in vitro [4])?
**A.** Its CC50 is > 505 µM.

**Q.** Which CC50 (in vitro [1]; [5]) does the source give for `COc1cc2c(cc1OC)C1Cc3ccc4c(c3O[C@@H]1CO2)C[C@H](C(C)C)O4` (stereo partly drawn) [Compound 7, 2R,6aS,12aS-2-Isopropyl-8,9-dimethoxy-1,2,6,6a,12,12a-hexahydrochromeno-[3,4-b]furo[2,3-h]-chromene] here?
**A.** The CC50 was > 476 µM.

**Q.** What about the CC50 (in vitro [1]; mouse) of the same molecule?
**A.** The CC50 was 1.67 ± 0.9 µM.

**Q.** What about the “Index of Selectivity huRBC” value [2] of the same molecule?
**A.** Its value is 8.7.

**Q.** And the EC50 [2, 6]?
**A.** Its EC50 is < 50 µM.

**Q.** What about the EC50 [2, 7] of the same molecule?
**A.** The EC50 was 47.4 ± 0.2 µM.

**Q.** And the “Index of Selectivity huMDM” value [3]?
**A.** Its value is <4.0.

**Q.** And the EC50 [3, 8]?
**A.** Its EC50 is > 119 µM.

**Q.** What about the CC50 (in vitro [4]) of the same molecule?
**A.** The CC50 was > 476 µM.

**Q.** With `C=C(C)[C@H]1Cc2c(ccc3c2O[C@@H]2COc4cc(OC)c(OC)cc4[C@@H]2C3=O)O1` [Compound 1, rotenone] as the molecule, how does the CC50 (in vitro [1]; [5]) read?
**A.** Its CC50 is > 508 µM.

**Q.** What about the CC50 (in vitro [1]; mouse) of the same molecule?
**A.** Its CC50 is 10.2 µM.

**Q.** What about the “Index of Selectivity huRBC” value ([2]; listed as 1 (Rotenone)) of the same molecule?
**A.** Its value is >26.1.

**Q.** And the EC50 ([2]; Plasmodium falciparum, 3D7, 72 h)?
**A.** Its EC50 is 19 ± 8.6 µM.

**Q.** What about the “Index of Selectivity huMDM” value [3] of the same molecule?
**A.** Its value is 3.1.

**Q.** And the EC50 ([3]; 72 h)?
**A.** Its EC50 is 127 ± 17.3 µM.

**Q.** And the “activity against intracellular amastigotes (in words)” value ([3]; antileishmanial activity, L. panamensis)?
**A.** The value was “inactive”.

**Q.** What about the CC50 at 2 h (in vitro [4]) of the same molecule?
**A.** The CC50 at 2 h was > 508 µM.

**Q.** Which CC50 (in vitro [1]; [5]) does the source give for `C=C(C)[C@H]1Cc2c(ccc3c2O[C@@H]2COc4cc(OC)c(OC)cc4[C@@H]2C3O)O1` (stereo partly drawn) [Compound 3, 2R,6aR,12aS-8,9-Dimethoxy-2-(prop-1-en-2-yl)-1,2,6,6a,12,12a-hexahydrochromeno[3,4-b]furo[2,3-h]chromen-6-ol] here?
**A.** The CC50 was 284 ± 23.6 µM.

**Q.** What about the CC50 (in vitro [1]; mouse) of the same molecule?
**A.** Its CC50 is 17 ± 3.4 µM.

**Q.** And the “Index of Selectivity huRBC” value [2]?
**A.** Its value is >9.6.

**Q.** And the EC50 [2, 6]?
**A.** Its EC50 is < 50 µM.

**Q.** What about the EC50 [2, 7] of the same molecule?
**A.** The EC50 was 53.9 ± 2.4 µM.

**Q.** What about the “Index of Selectivity huMDM” value [3] of the same molecule?
**A.** The value was <3.9.

**Q.** And the EC50 [3, 8]?
**A.** Its EC50 is > 130 µM.

**Q.** What about the CC50 (in vitro [4]) of the same molecule?
**A.** The CC50 was > 523 µM.

**Q.** For `CCN(CC)CCCC(C)Nc1ccnc2cc(Cl)ccc12` (stereo not drawn) [Chloroquine, reference compound], which EC50 [2, 6] is on record?
**A.** Its EC50 is 0.06 ± 0.03 µM.

**Q.** With `COc1cccc2c1C(=O)c1c(O)c3c(c(O)c1C2=O)C[C@@](O)(C(=O)CO)C[C@@H]3O[C@H]1C[C@H](N)[C@H](O)[C@H](C)O1` [Doxorubicin, reference compound] as the molecule, how does the CC50 (in vitro [1]; [5]) read?
**A.** The CC50 was 9.36 ± 2.2 µM.

**Q.** And the CC50 (in vitro [1]; mouse)?
**A.** Its CC50 is 2.6 ± 0.7 µM.

**Q.** Which CC50 (in vitro [1]; [5]) does the source give for `C[C@@H]1[C@H](O)[C@@H](C)/C=C/C=C/C=C/C=C/C=C/C=C/C=C/[C@H](O[C@@H]2O[C@H](C)[C@@H](O)[C@H](N)[C@@H]2O)C[C@@H]2O[C@](O)(C[C@@H](O)C[C@@H](O)[C@H](O)CC[C@@H](O)C[C@@H](O)CC(=O)O[C@H]1C)C[C@H](O)[C@H]2C(=O)O` [Amphotericin B, reference compound] here?
**A.** Its CC50 is 15.6 ± 0.4 µM.

**Q.** What about the CC50 (in vitro [1]; mouse) of the same molecule?
**A.** Its CC50 is 54.5 ± 0.3 µM.

**Q.** And the “Index of Selectivity huMDM” value [3]?
**A.** Its value is 143.0.

**Q.** What about the EC50 [3, 8] of the same molecule?
**A.** The EC50 was 0.8 ± 0.2 µM.
